The source of these data is EP2829536A1, “4-Nitro-5-dichloromethylpyrazol derivatives for the treatment of infectious diseases” (priority 2013, dated 2015).

“Also recorded” adds a separate entry of the source. Where two headings read alike, the source gives them in different places. Bounds are passed on as bounds.

Data set [1] has as its system M. tuberculosis H37Rv. The experiment in a line: Minimal inhibitory concentration by resazurin microtiter assay (REMA). It is filed as cell-based. The settings on record: Mycobacterium tuberculosis, 168 h, 7 days incubation, read-out: (MIC) against M. tuberculosis H37Rv.
Data set [2] relates to L929 cell line. The experiment in a line: MTT assay, effect on proliferation (5 days). It is filed as cell-based. To be noted: Mus musculus, L929, 120 h.
Data set [3] deals with L929 cell line. The experiment in a line: MTT assay, acute toxic effect (24 h). It is filed as cell-based. The settings on record: Mus musculus, L929, 24 h; 1 day (acute toxic effect).
For data set [4], the system named is M. bovis BCG. It is filed as cell-based.
Data set [5] can be described thus: Hepatic microsomal stability. It is filed as in vitro ADME, mice.
In data set [6] the test system is H37Rv Pasteur M. tuberculosis strain. Nature of the data set: Effectivity in mice infected with M. tuberculosis (bacillary load in lung and spleen). It is filed as in vivo. The settings on record: for p (Lungs) / p (Spleen): vs sham. The procedure:
Lx079 as well as two other components, Lx059 which is 10% DMSO in PBS buffer and Lx069 which is a combination of ethambutol (0.8 mg/ml) and myxopyronine (0.2 mg/ml), were tested for drug effectivity in mice. Two controls were included in the study (sham, non treated; and treated with Isoniazide (INH, 25 mg/kg).
The animals were infected at time point 0 with M. tuberculosis through an airborne infection apparatus (Glas-col Inc., Terre Haute, IN, USA) for infection with a low dose of H37Rv Pasteur M. tuberculosis strain. Nebulization provided an approximate uptake of 20-50 bacilli by mice lungs. The treatments and controls results were processed blindly. The experiment was run including 10 C57BL/6 mice per group. A volume of 0.2mL of each treatment was administered orally every day for 5 days, on week 2 post infection.
Mice were euthanized on week 3 with isoflurane (inhalation excess), and lung and spleen samples removed to and mechanically disrupted in order to obtain tissue homogenates to be plated cultured in Becton Dickinson 7H11 Middlebrook agar (Bennex Ltd, Shannon, Ireland) and incubated at 37 °C. Viable bacteria (Colony Forming Units, CFUs) were counted four weeks after, data being recorded as the log of the number of CFUs recovered per organ. The results of the different groups were represented graphically, compared and evaluated for statistically significant differences (non parametric comparison between each candidate and each control, Mann Whitney test), with the differences being considered significant at P≤0.05 (Graphpad software).
The effect on the bacillary load of each candidate results have been logarithmically represented as CFU/mL in the graphs attached. The lung and spleen results of each candidate and controls evaluated have been represented together (as box and whiskers, 5-95 percentiles plotted) and also per candidate with sham (results of each mouse and median and standard deviation plotted). Statistically significant differences (p<0.05) are marked with * if existing between the evaluated group and sham.

The test system of data set [7] is M. bovis BCG. The experiment in a line: microbe, parasite or virus in culture. In kind it is cell-based. To be noted: Mycobacterium tuberculosis variant bovis BCG.
Data set [8] relates to PtK2 cells. Nature of the data set: Effect on cell morphology / endoplasmic reticulum by immunocytochemistry (ICC). It is filed as cell-based, rat kangaroo. The settings on record: for morphological effect / ER stress: PtK2 cells, overnight. The procedure: Cell lines and media: Cells were grown at 37°C and 5% CO2 in the following media supplemented with 10 % FBS(Gibco): • L-929 cells (mouse connective tissue fibroblast: Dulbecco's modified Eagle's medium (DMEM), Lonza • PtK2 cells (rat kangaroo kidney epithelial cells): Minimum Essential Medium (MEM) medium, supplemented with 1 % non-essential amino acids and 1 % glutamax, Invitrogen.
The effects of the tested compounds on cell proliferation and the acute toxic effects were assayed in vitro on L929 cell line. The metabolic activity was measured by means of (MTT, (3-(4,5-Dimethylthiazol-2-yl)-2,5-diphenyltetrazolium bromide) cell survival colorimetric assay. Effect on proliferation: 60 µl of serial dilutions of the test compounds were added to 120 µl aliquots of a cell suspension (50,000 cells/ml) in 96-well microplates then incubated 5 days at 37°C and 5% CO2. 20 µl MTT dye were added to a final concentration of 0.5 mg/ml. After 2 h the precipitate of formazan crystals was centrifuged, and the supernatant discarded. After washing with PBS, the precipitate was dissolved in 100 µl of acidified propanol. The plates were stirred for 20 minutes and the optical density of the resulting color was measured at 590 nm. Acute toxic effect: It was investigated by plating 120 µl aliquots of a cell suspension (100,000-200,000 cells/ml) in 96-well microplates. The cells were incubated at 37°C and 5% CO2 and allowed to grow for two days to stop the cell propagation. Then 60 µl of serial dilutions of the test compounds were added and incubated for further 24h. Then the MTT assay was performed as described before. Results were expressed as the percentage of cellular viability in comparison to cells that were treated only with the vehicle. The IC50 values were determined as the concentrations at which cells developed 50% of the absorbance of untreated control cells as estimated from the dose-response curves of two parallel experiments. Immunofluorescence staining: The effects of substances on the phenotypical changes of cell shape and adhesion were investigatedin the potoroo (PtK2) cells after staining of the nucleus and the endoplasmic reticulum (ER). PtK2 cells were grown on cover slips in 4-well plates. semi-confluent cells were treated with test compounds and the plates were incubated over the night. The cells were fixed with cold methanol /acetone (1:1) for 10 min. Then the cells were washed with PBS and the primary antibody (anti GRP-94, thermoscientific) was added and incubated for 45 min and washed with PBS. Secondary antibody (Alexaflour goat anti-rat 488, Invitrogen) was then added to the cells and incubated for additional 45 min. Cells were washed with PBS and Cover slips were mounted in anti-fade mounting medium with DAPI (Invitrogen). Images were taken with a CCD camera attached to a fluorescence microscope.
The effects of substances on the phenotypical changes of cell shape and adhesion were investigated by the technique of immunocytochemistry (ICC). The endoplasmic reticulum (ER) was investigated upon treatment of the potoroo cells (PtK2) cells with/without test compounds.
PtK2 cells were grown on cover slips in 4-well plates. semi-confluent cells were treated with test compounds and the plates were incubated over the night. The cells were fixed with cold methanol /acetone for 10 min. Then the cells were washed with PBS and the primary antibody (anti GRP-94, thermoscientific) was added and incubated for 45 min and washed with PBS. […]

For data set [9] the following is noted: mouse, in vivo.
For data set [10] the following is noted: female, C57/BL6, mouse, in vivo; for F (bioavailability): po.
Excerpt: (§1) Mice were weighed and checked according to the protocols and observation data sheets that were requested. Animals were followed for weight loss, apparent good health (bristled hair and wounded skin) and behaviour (signs of aggressiveness or isolation). Animals: Young adult (6-8 weeks old) female C57/BL6 mice, 20 mice for acute oral toxicity testing and 81 mice for PK experiment were used. The animals were nulliparous and non-pregnant weighing 20 ±1.5 g each. They were maintained in their cages provided with a standard laboratory rodent diet and unlimited supply of drinking water and were allowed to acclimatize to the laboratory conditions for seven days before starting the experiments. The temperature in the experimental animal room was kept at 22°C ± 3°C and the relative humidity was 50 ± 20 %. Lighting was artificial with the sequence 12 hours light and 12 hours dark. Substance formulation for in vivo model: Doses were prepared in 5% DMSO in sterile water for oral dosing through oral gavage at a dose volume of 0.3 ml, and in 5% DMSO in PBS, pH 7.4 for IV bolus injection via tail vein at a dose volume 0.1 ml.
(§2) The animals were divided into one IV group (27 mice), 2 oral groups (24 mice each), control IV group (3 mice) and control oral group (3 mice). The IV group and one oral group were dosed with 12.5 mg/kg and the other oral group was dosed with 25 mg/kg, while the control groups received the vehicle. All blood samples were collected at 15 and 30 min and 1, 2, 4, 6, 8, and 24 h after oral dosing, and at 5, 15, and 30 min and 1, 2, 4, 6, 8, and 24 h following intravenous administration. The blood was collected from the control groups at 24 h. Mice were euthanized with isoflurane and a 0.3 mL aliquot of blood was collected via terminal bleed from three mice at each time point. Blood samples were collected in heparin as anticoagulant and plasma was harvested by centrifugation at 10,000 rpm for 2 minutes. Plasma samples were kept at -80 °C until analysis.
Data set [11] in a line: in vivo. The settings on record: female, C57/BL6, mouse; for bioavailability: F (bioavailability).
Excerpt: as §1, §2
Data set [12] can be described thus: Acute oral toxicity in mice. To be noted: for No. of dead mice: 5 mice, 14 days; for % Cumulative of dead mice: Reed-Muench method.
[13] abbreviates: dose group Lx079-1 (dose not given).
[14] abbreviates: dose group Lx079-2 (dose not given).
[15] abbreviates: dose group Lx079-3 (dose not given).
[16] abbreviates: dose group Lx079-4 (dose not given).
[17] abbreviates: dose group Lx079-5 (dose not given).
[18] abbreviates: dose group Lx079-6 (dose not given).

For the molecule `CNCCOc1nn(-c2c(Cl)cc(Cl)cc2Cl)c(C(Cl)Cl)c1[N+](=O)[O-].Cl` [LX079, 2-((5-(Dichloromethyl)-4-nitro-1-(2,4,6-trichlorophenyl)-1H-pyrazol-3-yl)oxy)-N-methylethanaminium chloride], the MIC came out at 0.18 µg/mL in data set [1] and 0.6 µg/mL in data set [7]. Moreover, the figures for the IC50 in [2] and in [3] were 2.2 µg/mL and 5.5 µg/mL, respectively. Further, the “decrease of log CFU” value in data set [4] (2 µg/ml, 72 hours, in comparison to the untreated controls) is listed as “around 2 log CFU”. Moreover, the “intracellular activity against M. bovis BCG” value in data set [4] (infected macrophage model, Fig. 1) is on record as “significant intracellular activity”. In addition, the “t1/2 (in vitro)” value in data set [5] (1 µM, mice microsomes 0.5 mg/mL, NADPH, 37 °C) is given as 5.937 ± 2.36 min. For the same molecule, in [5] (mouse, pooled liver microsomes, pH 7.4, 1 µM, mice microsomes 0.5 mg/mL, NADPH, 37 °C, read-out: t1/2 (in vitro)), the half-life at 1 µM was determined as 5.94 ± 2.36 min. For the same molecule, the microsomal CLint at 1 µM in data set [5] (mouse, pooled mouse liver microsomes, pH 7.4, mice microsomes, corrected for binding to microsomes, read-out: CLint, inc) was 2820 ± 1120 µL/min/mg. Moreover, the “CLint (hepatic intrinsic clearance)” value in [5] (scaled up from the in vitro t1/2, SMW: standard mouse weight) stood at 221.81± 88.23 ml/min/SMW. Besides, the “effect on the bacillary load in lungs and spleen compared to sham” value in data set [6] (C57BL/6 mice, oral, every day for 5 days on week 2 post infection) is “decrease the bacillary load in both in lungs and spleen; also recorded: clear positive inhibitory effect on the survival of the TB pathogen”. For the same molecule, the “p (Lungs)” value in data set [6] (setting [13]) is reported as 0.0032; in [6] (setting [14]) it was 0.0002; in data set [6] (setting [15]), 0.0010; in data set [6] (setting [16]) it was 0.0004; in data set [6] (setting [17]), 0.0002; in data set [6] (setting [18]) it was 0.0002. Moreover, the “p (Spleen)” value in [6] (setting [13]) was 0.0009; in [6] (setting [14]), 0.0343; in [6] (setting [15]), 0.0002; in data set [6] (setting [16]) it was 0.0117; in [6] (setting [17]) it was 0.0164; in data set [6] (setting [18]), 0.0031. For the same molecule, the “morphological effect / ER stress” value is given as “did not produce morphological abnormalities” in data set [8] (5µg/ml) and “induced massive ER stress” in data set [8] (6.6 µg/ml). Besides, the “morphological changes of the treated cells after immunofluorescence staining” value in data set [8] (concentration 25 times higher than the MIC) is listed as “no morphological changes”. Also, the “microscopic examination of liver, spleen, lungs, and kidneys” value in data set [9] is “No pathological abnormalities were detected”. Also, the C0 came to 660 ± 70 ng/mL in data set [10] (iv, 12.5 mg/kg) and 660 ± 70 ng/mL in data set [11] (iv, 12.5 mg/kg). The CL in data set [10] (iv, 12.5 mg/kg) was determined as 394 ± 20.3 mL/min/kg. Further, the “K (elimination rate constant)” value in [10] (iv, 12.5 mg/kg) stood at 1.79 ± 0.44. Besides, in data set [10] (iv, 12.5 mg/kg), the t1/2 came to 25.8 min. Further, the “time in which the plasma concentration was exceeding the in vitro MIC (T > MIC)” value in data set [10] (iv, 12.5 mg/kg) is given as “less than 1 hour”. Moreover, the “F (bioavailability)” value in data set [10] (12.5 mg/kg) amounted to 27.583 ± 2.457%; in data set [10] (25 mg/kg) it was 32.662 ± 7.715%. Besides, the AUC stood at 530 ± 30 ng·h/mL in data set [11] (iv, 12.5 mg/kg); 150 ± 20 ng·h/mL in data set [11] (po, 12.5 mg/kg); 350 ± 70 ng·h/mL in [11] (po, 25 mg/kg). The molecule further showed a clearance in data set [11] (iv, 12.5 mg/kg) of 394 mL/min/kg. Moreover, the half-life in [11] (iv, 12.5 mg/kg) was 25.8 ± 16.2 min. Further, the bioavailability in [11] (po, 12.5 mg/kg) is 27.6 ± 2.46%; in data set [11] (po, 25 mg/kg), 32.7 ± 7.72%. The results for the “No. of dead mice” value in [12] (62.5 mg/kg single oral dose), in [12] (125 mg/kg single oral dose) and in [12] (250 mg/kg single oral dose) were 0, 2 and 1, respectively. For the same molecule, the “% Cumulative of dead mice” value in data set [12] (62.5 mg/kg single oral dose) came out at 0%; in data set [12] (125 mg/kg single oral dose), 22%; in [12] (250 mg/kg single oral dose), 42.85%. The median lethal dose (LD50) at 14 days in data set [12] (female, C57/BL6, mouse, in vivo, po) was > 250 mg/kg.
Consider `CNCCOc1nn(-c2c(Cl)cc(C(F)(F)F)cc2Cl)c(C(Cl)Cl)c1[N+](=O)[O-].Cl` [Lx088, 2-((1-(2,6-Dichloro-4-(trifluoromethyl)phenyl)-5-(dichloromethyl)-4-nitro-1H-pyrazol-3-yl)oxy)-N-methylethanaminium chloride], for which, in data set [7], the MIC stood at 0.781 µg/mL. Besides, the “morphological effect / ER stress” value in [8] (6.6 µg/ml) was “produced less ER stress”; in data set [8] (13.3 µg/ml), “induced massive ER stress”.
With `CCNCCOc1nn(-c2c(Cl)cc(Cl)cc2Cl)c(C(Cl)Cl)c1[N+](=O)[O-].Cl` [Lx089, 2-((5-(Dichloromethyl)-4-nitro-1-(2,4,6-trichlorophenyl)-1H-pyrazol-3-yl)oxy)-N-ethylethanaminium chloride], the MIC in [7] turned out to be 0.781 µg/mL.
